Assay results taken from patent US9114111B2, “Methods for sustained treatment of bladder pain and irritative voiding” (priority 2011, dated 2015).
Like-named read-outs stand apart in the source and are kept apart here.

How the values were obtained:
[1] = In vitro release of lidocaine from silicone tube devices in water at about 37° C.; type: physicochemical; conditions: silicone tubes about 3 cm, payload about 60 mg
Method: A study was performed to determine the feasibility of delivering drug through the wall of a drug reservoir via diffusion. Devices were formed form silicone tubes having an inner diameter of about 0.060 inches, an outer diameter of 0.076 inches, and a length of about 3 cm. […] Some of the devices included an aperture formed through the tube wall, the aperture having a diameter of 150 μm. […] The devices were tested in vitro in water at about 37° C. […] Another study was performed to investigate the feasibility of delivering drug from a device through both a wall of a drug reservoir and from an aperture in the wall of the drug reservoir. Devices were formed form silicone tubes having a length of about 3 cm. […] The devices were tested in vitro in water at about 37° C.

IC patients = conditions: cited from earlier work

SMILES	release from silicone tube with and without apertures [1]	mean pain score (IC patients; immediately following treatment, prior to treatment 6.0)	duration of effect (IC patients; single lidocaine instillation)	mean pain score (IC patients; the next day)	mean pain score (IC patients; with a second instillation)
CCN(CC)CC(=O)Nc1c(C)cccc1C [lidocaine base]	can be released from a silicone tube without any apertures	–	–	–	–
CCN(CC)CC(=O)Nc1c(C)cccc1C [lidocaine]	–	1.8	approximately 24 hours	3.7	1.2
